From PubChem BioAssay (NCI)
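Interpolation was linear, between the two tested concentrations surrounding the appropriate level; five concentrations were tested over 48 hours in 96-well plates. At the GI50, growth is halved. TGI: total growth inhibition.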

Tests used:
Assay in all cases: NCI anticancer screen, dose series, 48 h
CAKI-1 renal = test system: CAKI-1 renal
OVCAR-4 ovarian = test system: OVCAR-4 ovarian
HT29 colon = test system: HT29 colon
MDA-MB-435 = test system: MDA-MB-435
M14 melanoma = test system: M14 melanoma
OVCAR-8 ovarian = test system: OVCAR-8 ovarian
MCF7 breast = test system: MCF7 breast
786-0 renal = test system: 786-0 renal
MALME-3M melanoma = test system: MALME-3M melanoma
LOX IMVI melanoma = test system: LOX IMVI melanoma
NCI-H460 lung = test system: NCI-H460 lung
SW-620 colon = test system: SW-620 colon
OVCAR-3 ovarian = test system: OVCAR-3 ovarian
SF-268 CNS = test system: SF-268 CNS
SNB-75 CNS = test system: SNB-75 CNS
UACC-257 melanoma = test system: UACC-257 melanoma
A498 renal = test system: A498 renal
A549 NSCLC = test system: A549 NSCLC
K-562 leukemia = test system: K-562 leukemia
SK-MEL-2 melanoma = test system: SK-MEL-2 melanoma
HCT-116 colon = test system: HCT-116 colon
HL-60(TB) leukemia = test system: HL-60(TB) leukemia
HOP-92 NSCLC = test system: HOP-92 NSCLC
CCRF-CEM leukemia = test system: CCRF-CEM leukemia
SF-295 CNS = test system: SF-295 CNS
SK-MEL-28 melanoma = test system: SK-MEL-28 melanoma
HS 578T breast = test system: HS 578T breast
SNB-19 CNS = test system: SNB-19 CNS
HOP-62 NSCLC = test system: HOP-62 NSCLC
U251 CNS = test system: U251 CNS
COLO 205 colon = test system: COLO 205 colon
MDA-MB-231 breast = test system: MDA-MB-231 breast
MOLT-4 leukemia = test system: MOLT-4 leukemia
ACHN renal = test system: ACHN renal
HCC-2998 colon = test system: HCC-2998 colon
SN12C renal = test system: SN12C renal
NCI-H23 lung = test system: NCI-H23 lung
TK-10 renal = test system: TK-10 renal
SR leukemia = test system: SR leukemia
NCI/ADR-RES ovarian = test system: NCI/ADR-RES ovarian
NCI-H226 lung = test system: NCI-H226 lung
DU-145 prostate = test system: DU-145 prostate
BT-549 breast = test system: BT-549 breast
SK-MEL-5 melanoma = test system: SK-MEL-5 melanoma
KM12 colon = test system: KM12 colon
SK-OV-3 ovarian = test system: SK-OV-3 ovarian
RPMI-8226 leukemia = test system: RPMI-8226 leukemia
T-47D breast = test system: T-47D breast
RXF 393 renal = test system: RXF 393 renal
NCI-H522 lung = test system: NCI-H522 lung
PC-3 prostate = test system: PC-3 prostate
HCT-15 colon = test system: HCT-15 colon
IGROV1 ovarian = test system: IGROV1 ovarian
UACC-62 melanoma = test system: UACC-62 melanoma
UO-31 renal = test system: UO-31 renal
OVCAR-5 ovarian = test system: OVCAR-5 ovarian
SF-539 CNS = test system: SF-539 CNS

## COc1ccc(C2=C(c3cn(C)c4ccccc34)C(=O)NC2=O)cc1OC
CAKI-1 renal
  GI50: 5.78 µM
  TGI: > 25 µM
OVCAR-4 ovarian
  GI50: 10.6 µM
  TGI: > 25 µM
HT29 colon
  GI50: 6.78 µM
  TGI: > 25 µM
MDA-MB-435
  GI50: 1.1 µM
  TGI: > 25 µM
M14 melanoma
  GI50: 6.83 µM
  TGI: > 25 µM
OVCAR-8 ovarian
  GI50: 15.6 µM
  TGI: > 25 µM
MCF7 breast
  GI50: 5.75 µM
  TGI: > 25 µM
786-0 renal
  GI50: 8.28 µM
  TGI: > 25 µM
MALME-3M melanoma
  GI50: > 25 µM
  TGI: > 25 µM
LOX IMVI melanoma
  GI50: 8.12 µM
  TGI: > 25 µM
NCI-H460 lung
  GI50: 8.52 µM
  TGI: > 25 µM
SW-620 colon
  GI50: 6.96 µM
  TGI: > 25 µM
OVCAR-3 ovarian
  GI50: 7.57 µM
  TGI: > 25 µM
SF-268 CNS
  GI50: 8.85 µM
  TGI: > 25 µM
SNB-75 CNS
  GI50: 0.743 µM
  TGI: 7.08 µM
UACC-257 melanoma
  GI50: > 25 µM
  TGI: > 25 µM
A498 renal
  GI50: 3.43 µM
  TGI: 8.95 µM
A549 NSCLC
  GI50: 8.44 µM
  TGI: > 25 µM
K-562 leukemia
  GI50: 4.92 µM
  TGI: > 25 µM
SK-MEL-2 melanoma
  GI50: 6.18 µM
  TGI: > 18.6 µM
HCT-116 colon
  GI50: 6.68 µM
  TGI: > 25 µM
HL-60(TB) leukemia
  GI50: 6.27 µM
  TGI: 17.2 µM
HOP-92 NSCLC
  GI50: > 12.4 µM
  TGI: > 25 µM
CCRF-CEM leukemia
  GI50: 6.38 µM
  TGI: > 25 µM
SF-295 CNS
  GI50: 10.4 µM
  TGI: > 25 µM
SK-MEL-28 melanoma
  GI50: 16.8 µM
  TGI: > 25 µM
HS 578T breast
  GI50: 3.85 µM
  TGI: > 20.6 µM
SNB-19 CNS
  GI50: > 25 µM
  TGI: > 25 µM
HOP-62 NSCLC
  GI50: 11.8 µM
  TGI: > 25 µM
U251 CNS
  GI50: 7.62 µM
  TGI: > 25 µM
COLO 205 colon
  GI50: 5.57 µM
  TGI: > 20.3 µM
MDA-MB-231 breast
  GI50: 10.7 µM
  TGI: > 25 µM
MOLT-4 leukemia
  GI50: 8.84 µM
  TGI: > 25 µM
ACHN renal
  GI50: 6.35 µM
  TGI: > 25 µM
HCC-2998 colon
  GI50: > 22.3 µM
  TGI: > 25 µM
SN12C renal
  GI50: 8.91 µM
  TGI: > 25 µM
NCI-H23 lung
  GI50: 10.3 µM
  TGI: > 25 µM
TK-10 renal
  GI50: 9.2 µM
  TGI: > 25 µM
SR leukemia
  GI50: 2.48 µM
  TGI: > 25 µM
NCI/ADR-RES ovarian
  GI50: 7.99 µM
  TGI: > 25 µM
NCI-H226 lung
  GI50: 10.8 µM
  TGI: > 25 µM
DU-145 prostate
  GI50: > 19.4 µM
  TGI: > 25 µM
BT-549 breast
  GI50: 8.02 µM
  TGI: > 25 µM
SK-MEL-5 melanoma
  GI50: 6.11 µM
  TGI: > 22.3 µM
KM12 colon
  GI50: 6.34 µM
  TGI: > 25 µM
SK-OV-3 ovarian
  GI50: 6.72 µM
  TGI: > 25 µM
RPMI-8226 leukemia
  GI50: 9.61 µM
  TGI: > 25 µM
T-47D breast
  GI50: 7.21 µM
  TGI: > 25 µM
RXF 393 renal
  GI50: 6.44 µM
  TGI: > 25 µM
NCI-H522 lung
  GI50: 7.65 µM
  TGI: > 21.9 µM
PC-3 prostate
  GI50: 7.29 µM
  TGI: > 25 µM
HCT-15 colon
  GI50: 6.4 µM
  TGI: > 25 µM
IGROV1 ovarian
  GI50: 7.99 µM
  TGI: > 25 µM
UACC-62 melanoma
  GI50: 8.12 µM
  TGI: > 25 µM
UO-31 renal
  GI50: 4.83 µM
  TGI: > 25 µM
OVCAR-5 ovarian
  GI50: > 25 µM
  TGI: > 25 µM
SF-539 CNS
  GI50: 5.51 µM
  TGI: > 18.1 µM
